Experimental data published in US20060240026A1, “Preventing and/or remedy hematopoietic tumor” (GREEN PEPTIDE CO., LTD., priority 2003, published 2006).
Entries after “also recorded” stand apart in the source; their conditions may differ. Ends that are not written are not given here.

Columns and labels:
[1] = system: C1R-A24 cells pulsed with the peptides; assay: IFN-γ production of PBMCs of vaccinated chronic lymphocytic leukemia patient; assay type: in vivo, human; settings: CLL patient No. 1, with the increasing number of peptide vaccination
Description: The patient (patient No. 1 in table 2) subjected to clinical trials was a HLA-A24^+ […] suffering from chronic lymphocytic leukemia with a stage A by Bernet's classification.
(§1) Two kinds of emulsions prepared using these peptides according to the methods described in Example 5 were vaccinated to the patient by injecting subcutaneously at different sites of the patient's lateral thigh.
After each vaccination, PBMCs derived from the patient were studied for the peptide-specific cytotoxic T lymphocyte induction by measuring the amount of IFN-γ production as an indicator against C1R-A24 cells pulsed with the peptides used (see Example 3).

[2] = system: PBMCs of HLA-A24+ patients with hematologic malignancies; assay: IFN-γ production by peptide-stimulated patient PBMCs in response to peptide-pulsed C1R-A24 cells; assay type: cell-based, human; design: peptide-specific IFN-γ production: unit not given here; settings: for peptide-specific IFN-γ production: 10 μM peptide in vitro, vs peptide-pulsed C1R-A24, HIV-peptide background subtracted
Method: The induction of peptide-specific cytotoxic T lymphocytes from PBMCs of a patient with hematologic malignancy was conducted as reported preveously (Non-Patent Reference 5). The following peptides were used to induce cytotoxic T lymphocytes: p56^lck protein-derived peptides (Lck208 (SEQ ID NO: 1), Lck488 (SEQ ID NO: 2) and Lck486 (SEQ ID NO: 3)); SART-1-derived peptide (SART-1690 (SEQ ID NO: 4)); SART-2-derived peptides (SART-293 (SEQ ID NO: 5), SART-2161 (SEQ ID NO: 6) and SART-2899 (SEQ ID NO: 7)); SART-3-derived peptides (SART-3109 (SEQ ID NO: 8) and SART-3315 (SEQ ID NO: 9)); and ART-1-derived peptide (ART-1170 (SEQ ID NO: 10)). All of these peptides are the epithelial cancer-related antigen-derived peptides and have the ability to induce cytotoxic T lymphocytes from PBMCs of an epithelial cancer patient in an HLA-A24 dependent manner (Non-Patent References 3-6 and 12). A human immunodeficiency virus (HIV)-derived peptide (SEQ ID NO: 11) and Epstein-Barr virus (EBV)-derived peptide (SEQ ID NO: 12) were used respectively as a negative control peptide and positive control peptide both of which have an HLA-A24-binding motif. […] PBMCs were prepared from peripheral blood that was collected from a patient with hematologic malignancy using Ficoll-Conray density-gradient centrifugation. The expression of HLA-A24 molecules on PBMCs was determined using flow cytometry by a well known method (Non-Patent Reference 5). The induction of cytotoxic T lymphocytes from PBMCs was conducted as follows. […] The culture medium consisted of 45% RPMI-1640, 45% AIM-V (Invitrogen), 10% FCS, 100 U/ml of interleukin-2 (IL-2), and 0.1 mM MEM non-essential amino acid solution (Invitrogen). […] The background IFN-γ production in response to the HIV-derived peptide (SEQ ID NO: 11) was subtracted from the values given in the data. When the mean value of the IFN-γ produced from the peptide-stimulated PBMCs in response to a corresponding peptide was higher than that produced in response to the HIV peptide (SEQ ID NO: 11), it was judged that the precursor of a peptide-specific cytotoxic T lymphocyte was present in the PBMCs and that the peptide-specific cytotoxic T lymphocytes were induced by the peptide. PBMCs of ten cases of HLA-A24^+ patients with hematologic malignancies (two cases with CLL, one case with MCL, one case with NHL, one case with B-ALL, one case with MM, one case with MDS, two cases with ATL, and one case with T-ALL) were tested for the induction of cytotoxic T lymphocytes using peptides that were derived from p56^lck protein, SART-1, SART-2, SART-3 and ART-1. The peptides used were the peptides that induced peptide-specific tumor-reactive cytotoxic T lymphocytes from PBMCs of an HLA-A24^+ epithelial cancer patient, which are currently on clinical trials for use as vaccines for epithelial cancer patients. The PBMCs were stimulated with the peptide in vitro to measure the peptide-specific IFN-γ production.

[3] = system: C1R-A24 cells pulsed with the peptides; assay: Cytotoxic activity of PBMCs of vaccinated chronic lymphocytic leukemia patient (51Cr-release); assay type: in vivo, human; settings: CLL patient No. 1, PBMCs after vaccination, 51Cr-release test
Description: as §1

[4] = Side effects and skin test, chronic lymphocytic leukemia patient; assay type: in vivo, human
Method: Three kinds of emulsions each of which contains each of these peptides respectively and an adjuvant were prepared according to the method described in Example 1, and vaccinated to the patient by injecting subcutaneously at different sites of the patient's lateral thigh. […] The skin test was conducted by injecting intradermally the solution of 50 μg of each peptide in physiological saline and determining immediate-type or delayed-type hypersensitivity reaction at 20 minutes or 24 hours after the injection.
Therefore, SART-293 (SEQ ID NO: 5) and SART-3109 (SEQ ID NO: 8) were used for vaccination. […] In the clinical trials of peptide vaccines in epithelial cancer patients, there has been observed a correlation between the survival rate of patients and the increased humoral immune responses against the peptides used in the vaccines. From these facts, it was believed that SART-293 (SEQ ID NO: 5) and SART-3109 (SEQ ID NO: 8) were effective in this patient.
Thus, there were very few side effects observed.

[5] = system: HLA-A24+ PHA blastoid T-cell; assay: 51Cr-release test of peptide-stimulated PBMCs against normal cells; assay type: cell-based, human; settings: peptide-stimulated patient PBMCs further cultured with IL-2; effector/target 3, 10 or 30; 6 h
Method: (§2) Then, the cytotoxicity against hematologic malignant cell lines was examined by a standard ^51Cr-release test (Non-Patent Reference 5). Specifically, the PBMCs obtained were used as an effector to mix with ^51Cr-labelled target cells (hereinafter referred to as targets) at an effector/target rate of 3, 10 or 30, and then incubated for six hours, followed by measuring the radioactivity of ^51Cr released in the supernatants. The results obtained were indicated as % lysis which was calculated by regarding a radioactivity as 100% when the targets were completely dissolved. The following targets were used: PEER, an HLA-A24^+ hematologic malignant cell line; HPB-MLT, an HLA-A24^− hematologic malignant cell line; and an HLA-A24^+ PHA blastoid T-cell.

[6] = system: HLA-A24+ hematologic malignant cell line (PEER, REH); assay: 51Cr-release test of peptide-stimulated PBMCs against HLA-A24+ malignant line; assay type: cell-based, human; settings: peptide-stimulated patient PBMCs further cultured with IL-2; effector/target 3, 10 or 30; 6 h
Method: as §2

[7] = system: HLA-A24- hematologic malignant cell line (HPB-MLT); assay: 51Cr-release test of peptide-stimulated PBMCs against HLA-A24- malignant line; assay type: cell-based, human; settings: peptide-stimulated patient PBMCs further cultured with IL-2; effector/target 3, 10 or 30; 6 h
Method: as §2

SART-293: SART-2-derived peptide; epithelial cancer-related antigen peptide (DYSARWNEI; Partial peptide of SART-2)
IFN-γ production in response to C1R-A24 cells pulsed with the peptide [1]: enhanced production of interferon (IFN)-γ
peptide-specific IFN-γ production ([2]; PBMCs of patient #1 CLL): 0
peptide-specific IFN-γ production ([2]; PBMCs of patient #2 CLL): 440
peptide-specific IFN-γ production ([2]; PBMCs of patient #3 MCL): 9
peptide-specific IFN-γ production ([2]; PBMCs of patient #4 NHL): 63
peptide-specific IFN-γ production ([2]; PBMCs of patient #5 B-ALL): 20
peptide-specific IFN-γ production ([2]; PBMCs of patient #6 MM): 28
peptide-specific IFN-γ production ([2]; PBMCs of patient #7 MDS): 0
peptide-specific IFN-γ production ([2]; PBMCs of patient #8 ATL): 0
peptide-specific IFN-γ production ([2]; PBMCs of patient #9 ATL): 354
peptide-specific IFN-γ production ([2]; PBMCs of patient #10 T-ALL): 192
Responding case/total (enhancement of IFN-γ production) ([2]; ten HLA-A24+ patients with hematologic malignancies): 3/10
cytotoxic activity against peptide-pulsed C1R-A24 cells versus cells pulsed with HIV-derived peptide [3]: higher cytotoxic activity

EYCLKFTKL [ART-1170]
immediate hypersensitivity reaction in skin test ([4]; CLL patient No. 1, before vaccination): caused immediate hypersensitivity reaction

TFDYLRSVL [Lck486]
cytotoxic activity (% lysis) against HLA-A24+ PHA blastoid T-cells [5]: did not show cytotoxic activity; also recorded: did not exhibit cytotoxic activity
cytotoxic activity (% lysis) against HLA-A24+ hematologic malignant line [6]: significant cytotoxic activity; also recorded: exhibited cytotoxic activity
cytotoxic activity (% lysis) against HLA-A24- hematologic malignant line [7]: did not show cytotoxic activity; also recorded: did not exhibit cytotoxic activity

VYDYNCHVDL [SART-3109]
delayed-type hypersensitivity reaction ([4]; CLL patient No. 1, after the third vaccination): delayed-type hypersensitivity reaction was observed
